Laboratory results as given in paper PMC10330001 (Chemistry (Weinheim an der Bergstrasse, Germany), 2023).
Read-outs that look alike come from different tables or passages of the source.

Assays:
[1] = molecular target: T1, HCoV-HKU1 main protease (Human coronavirus HKU1, UniProt P0C6X2); experiment: biochemical
T1 sequence (P0C6X2 3335-3637 limits assumed): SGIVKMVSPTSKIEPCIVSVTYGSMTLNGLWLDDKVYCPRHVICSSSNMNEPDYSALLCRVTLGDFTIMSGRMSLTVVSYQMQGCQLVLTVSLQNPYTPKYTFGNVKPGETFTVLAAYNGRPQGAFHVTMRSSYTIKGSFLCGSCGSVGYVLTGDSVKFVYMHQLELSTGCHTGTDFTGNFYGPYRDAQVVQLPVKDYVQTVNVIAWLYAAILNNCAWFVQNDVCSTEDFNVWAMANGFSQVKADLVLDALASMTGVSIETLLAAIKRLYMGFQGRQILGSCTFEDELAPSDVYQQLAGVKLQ

[2] = molecular target: HCoV-NL63 main protease (Human coronavirus NL63, UniProt P0C6X5); experiment: biochemical
[3] = test system: SARS-CoV-2 (USA-WA1/2020); details: read-out: antiviral EC50; comparison value for the Caco2-hACE2 result; ref 9b; cited from earlier work
[4] = molecular target: T2, SARS-CoV-2 Mpro (Severe acute respiratory syndrome coronavirus 2, UniProt P0DTD1); experiment: biochemical; type: biochemical
[5] = molecular target: SARS-CoV main protease (Severe acute respiratory syndrome coronavirus, UniProt P0C6X7); experiment: biochemical
[6] = molecular target: MERS-CoV main protease (Middle East respiratory syndrome-related coronavirus, UniProt K9N7C7); experiment: biochemical
[7] = molecular target: T3, HCoV-OC43 main protease (Human coronavirus OC43, UniProt P0C6X6); experiment: biochemical
T3 sequence (P0C6X6 3247-3549 limits assumed): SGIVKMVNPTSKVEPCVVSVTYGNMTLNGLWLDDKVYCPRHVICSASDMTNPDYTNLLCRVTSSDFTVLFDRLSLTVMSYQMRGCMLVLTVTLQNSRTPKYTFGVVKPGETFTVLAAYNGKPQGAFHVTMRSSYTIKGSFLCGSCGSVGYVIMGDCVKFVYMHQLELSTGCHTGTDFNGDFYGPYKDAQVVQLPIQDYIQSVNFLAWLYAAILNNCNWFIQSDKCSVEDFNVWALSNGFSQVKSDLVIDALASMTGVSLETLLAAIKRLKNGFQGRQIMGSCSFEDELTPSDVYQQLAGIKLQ

[8] = molecular target: HCoV-229E main protease (Human coronavirus 229E, UniProt P0C6X1); experiment: biochemical
[9] = molecular target: T2, SARS-CoV-2 Mpro; experiment: cell-based
[10] = test system: SARS-CoV-2 (USA-WA1/2020); experiment: microbe, parasite or virus in culture; type: cell-based
[11] = test system: SARS-CoV-2 (USA-WA1/2020); type: cell-based

Chain of HCoV-NL63 main protease (P0C6X5 2940-3242 limits assumed): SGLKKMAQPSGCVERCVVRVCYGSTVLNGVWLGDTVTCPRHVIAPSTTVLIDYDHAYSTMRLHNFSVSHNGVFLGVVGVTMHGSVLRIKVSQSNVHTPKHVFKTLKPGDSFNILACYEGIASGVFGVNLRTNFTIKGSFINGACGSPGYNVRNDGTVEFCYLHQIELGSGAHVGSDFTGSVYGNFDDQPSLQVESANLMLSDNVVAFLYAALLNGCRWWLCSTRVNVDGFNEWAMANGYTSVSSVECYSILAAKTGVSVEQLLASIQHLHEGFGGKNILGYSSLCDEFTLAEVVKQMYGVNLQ
Chain of HCoV-229E main protease (P0C6X1 2966-3267): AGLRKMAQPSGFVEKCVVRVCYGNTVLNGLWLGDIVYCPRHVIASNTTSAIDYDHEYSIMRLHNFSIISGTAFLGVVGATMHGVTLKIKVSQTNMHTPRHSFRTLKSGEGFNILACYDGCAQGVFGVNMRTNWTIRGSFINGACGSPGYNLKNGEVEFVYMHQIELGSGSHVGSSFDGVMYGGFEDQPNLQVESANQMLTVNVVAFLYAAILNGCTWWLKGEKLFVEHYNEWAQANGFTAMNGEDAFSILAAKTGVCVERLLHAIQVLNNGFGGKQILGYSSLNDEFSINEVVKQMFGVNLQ
Chain of MERS-CoV main protease (K9N7C7 3248-3553 limits assumed): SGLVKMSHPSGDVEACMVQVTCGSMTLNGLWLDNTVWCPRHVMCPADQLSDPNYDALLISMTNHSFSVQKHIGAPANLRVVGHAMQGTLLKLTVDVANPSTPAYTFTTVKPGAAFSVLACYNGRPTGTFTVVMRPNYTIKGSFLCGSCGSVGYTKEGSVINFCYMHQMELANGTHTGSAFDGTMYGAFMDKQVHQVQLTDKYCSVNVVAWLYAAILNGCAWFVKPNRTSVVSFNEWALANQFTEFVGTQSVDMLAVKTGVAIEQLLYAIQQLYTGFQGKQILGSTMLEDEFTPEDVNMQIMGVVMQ

Compound	IC50 ([4]; read-out: SARS-CoV-2 IC50)	IC50 [4]	IC50 [5]	IC50 [6]	IC50 [7]	IC50 [1]	IC50 [8]	IC50 [2]	EC50 [9]	other results
CC(C)C[C@H](NC(=O)OCc1ccccc1)C(=O)N[C@@H](CC1CCNC1=O)C(O)S(=O)(=O)O (stereo partly drawn) [GC376, reference compound]	–	–	–	–	–	–	–	–	–	IC50 ([1]; read-out: HKU1 IC50): 12 ± 30 nM; IC50 ([2]; read-out: HCoV-NL63 IC50): 120 ± 20 nM; EC50 [3]: 2900 nM
CC(C)C[C@@H](C(=O)N[C@H](C=O)C[C@@H]1CCNC1=O)N1C[C@@H](NC(=O)OCc2ccccc2)CC1=O [M-1-1, Benzyl ((S)-1-((S)-4-methyl-1-oxo-1-(((S)-1-oxo-3-((S)-2-oxopyrrolidin-3-yl)propan-2-yl)amino)pentan-2-yl)-5-oxopyrrolidin-3-yl) carbamate]	510 nM	–	–	–	–	–	–	–	–	–
CC(C)C[C@@H](C(=O)N[C@H](C=O)C[C@@H]1CCNC1=O)N1C[C@@H](NC(=O)OCc2ccccc2)CCC1=O [M-1-3, Benzyl ((S)-1-((S)-4-methyl-1-oxo-1-(((S)-1-oxo-3-((S)-2-oxopyrrolidin-3-yl)propan-2-yl)amino)pentan-2-yl)-6-oxopiperidin-3-yl)carbamate]	–	80 ± 10 nM	160 ± 10 nM	410 ± 50 nM	710 ± 20 nM	33 ± 10 nM	62 ± 10 nM	890 ± 10 nM	> 60000 nM	antiviral activity [10]: not active; antiviral activity [11]: not active
O=C[C@H](C[C@@H]1CCNC1=O)NC(=O)[C@H](CC1CCCCC1)N1C[C@@H](NC(=O)OCc2ccccc2)CCC1=O [M-1-4, Benzyl ((S)-1-((S)-3-cyclohexyl-1-oxo-1-(((S)-1-oxo-3-((S)-2-oxopyrrolidin-3-yl)propan-2-yl)amino)propan-2-yl)-6-oxopiperidin-3-yl)carbamate]	–	950 ± 40 nM	730 ± 100 nM	> 20000 nM	3670 ± 630 nM	1210 ± 200 nM	610 ± 90 nM	9580 ± 1790 nM	18000 nM	EC50 ([10]; Severe acute respiratory syndrome coronavirus 2, read-out: antiviral EC50): 19000 nM
O=C[C@H](C[C@@H]1CCNC1=O)NC(=O)[C@H](Cc1cccc(F)c1)N1C[C@@H](NC(=O)OCc2ccccc2)CCC1=O [M-1-5, Benzyl ((S)-1-((S)-3-(3-fluorophenyl)-1-oxo-1-(((S)-1-oxo-3-((S)-2-oxopyrrolidin-3-yl)propan-2-yl)amino)propan-2-yl)-6-oxopiperidin-3-yl)carbamate]	–	–	–	–	–	–	–	–	49600 nM	–
O=C[C@H](C[C@@H]1CCNC1=O)NC(=O)[C@H](CC1CC1)N1C[C@@H](NC(=O)OCc2ccccc2)CCC1=O [M-1-6, Benzyl ((S)-1-((S)-3-cyclopropyl-1-oxo-1-(((S)-1-oxo-3-((S)-2-oxopyrrolidin-3-yl)propan-2-yl)amino)propan-2-yl)-6-oxopiperidin-3-yl)carbamate]	–	80 ± 10 nM	250 ± 20 nM	850 ± 210 nM	180 ± 10 nM	120 ± 20 nM	180 ± 20 nM	480 ± 60 nM	> 60000 nM	–
CC(C)C[C@@H](C(=O)N[C@H](C=O)C[C@@H]1CCNC1=O)N1C[C@@H](NC(=O)OCc2cc(F)cc(F)c2)CCC1=O [M-1-7, 3,5-difluorobenzyl ((S)-1-((S)-4-methyl-1-oxo-1-(((S)-1-oxo-3-((S)-2-oxopyrrolidin-3-yl)propan-2-yl)amino)pentan-2-yl)-6-oxopiperidin-3-yl)carbamate]	–	190 nM	–	–	–	–	–	–	27300 nM	–
CC(C)C[C@@H](C(=O)N[C@@H](C[C@@H]1CCNC1=O)C(=O)C(=O)NC1CC1)N1C[C@@H](NC(=O)OCc2ccccc2)CC1=O [M-2-3, Benzyl ((S)-1-((S)-1-(((S)-4-(cyclopropylamino)-3,4-dioxo-1-((S)-2-oxopyrrolidin-3-yl)butan-2-yl)amino)-4-methyl-1-oxopentan-2-yl)-5-oxopyrrolidin-3-yl)carbamate]	–	1310 ± 100 nM	2260 ± 390 nM	8020 ± 2070 nM	120 ± 10 nM	390 ± 30 nM	690 ± 80 nM	830 ± 100 nM	–	–
CC(C)C[C@@H](C(=O)N[C@@H](C[C@@H]1CCNC1=O)C(=O)C(=O)NC1CC1)N1C[C@@H](NC(=O)OCc2ccccc2)CCC1=O [M-2-5, Benzyl ((S)-1-((S)-1-(((S)-4-(cyclopropylamino)-3,4-dioxo-1-((S)-2-oxopyrrolidin-3-yl)butan-2-yl)amino)-4-methyl-1-oxopentan-2-yl)-6-oxopiperidin-3-yl) carbamate]	3580 nM	–	–	–	–	–	–	–	–	–
O=C(N[C@H]1CCC(=O)N([C@@H](CC2CCCCC2)C(=O)N[C@@H](C[C@@H]2CCNC2=O)C(=O)C(=O)NC2CC2)C1)OCc1ccccc1 [M-2-6, Benzyl ((S)-1-((S)-3-cyclohexyl-1-(((S)-4-(cyclopropylamino)-3,4-dioxo-1-((S)-2-oxopyrrolidin-3-yl)butan-2-yl)amino)-1-oxopropan-2-yl)-6-oxopiperidin-3-yl) carbamate]	4430 nM	–	–	–	–	–	–	–	–	–
O=C(N[C@H]1CCC(=O)N([C@@H](Cc2cccc(F)c2)C(=O)N[C@@H](C[C@@H]2CCNC2=O)C(=O)C(=O)NC2CC2)C1)OCc1ccccc1 [M-2-7, Benzyl ((S)-1-((S)-1-(((S)-4-(cyclopropylamino)-3,4-dioxo-1-((S)-2-oxopyrrolidin-3-yl)butan-2-yl)amino)-3-(3-fluorophenyl)-1-oxopropan-2-yl)-6-oxopiperidin-3-yl) carbamate]	3990 nM	–	–	–	–	–	–	–	–	–
O=C(N[C@H]1CCC(=O)N([C@@H](CC2CC2)C(=O)N[C@@H](C[C@@H]2CCNC2=O)C(=O)C(=O)NC2CC2)C1)OCc1ccccc1 [M-2-8, Benzyl ((S)-1-((S)-3-cyclopropyl-1-(((S)-4-(cyclopropylamino)-3,4-dioxo-1-((S)-2-oxopyrrolidin-3-yl)butan-2-yl)amino)-1-oxopropan-2-yl)-6-oxopiperidin-3-yl)carbamate]	–	2140 ± 90 nM	3880 ± 670 nM	> 20000 nM	2600 ± 450 nM	2230 ± 460 nM	5670 ± 490 nM	10800 ± 2210 nM	–	–
